Results from patent US20140227208A1, “COSMETIC COMPOSITIONS CONTAINING SUBSTITUTED AZOLE AND METHODS FOR ALLEVIATING MECHANICALLY-INDUCED SKIN INFLAMMATION” (The Procter & Gamble Company, priority 2013, published 2014).
Where two headings read alike, the source gives them in different places. Values belong to the molecule of their own block, whether it stands above or below them.

What was measured:
[1] = biological target: CYP3A4 (Homo sapiens, UniProt P08684); experiment: In vitro CYP/CYP3A4 inhibition assay (P450-GLO Assay kit, Promega)
CYP3A4, sequence (P08684 whole entry): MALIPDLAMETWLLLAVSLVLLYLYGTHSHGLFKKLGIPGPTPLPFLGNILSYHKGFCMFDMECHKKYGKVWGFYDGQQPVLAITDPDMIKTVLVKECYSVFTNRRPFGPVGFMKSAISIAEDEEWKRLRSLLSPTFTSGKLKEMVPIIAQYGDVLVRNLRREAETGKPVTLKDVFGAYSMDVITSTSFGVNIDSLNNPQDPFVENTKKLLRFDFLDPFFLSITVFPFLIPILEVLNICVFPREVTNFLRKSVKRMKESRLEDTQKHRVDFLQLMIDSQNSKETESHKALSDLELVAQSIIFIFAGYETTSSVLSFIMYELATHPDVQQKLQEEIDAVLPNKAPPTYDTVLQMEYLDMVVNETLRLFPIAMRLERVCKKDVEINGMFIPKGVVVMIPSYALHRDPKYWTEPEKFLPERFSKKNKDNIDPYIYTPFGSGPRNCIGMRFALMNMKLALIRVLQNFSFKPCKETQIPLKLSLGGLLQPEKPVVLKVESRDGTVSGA
Description: The metabolism of retinoic acid and vitamin D in the skin is incompletely understood, but there is evidence for the involvement of CYP26A1, CYP3A4 and CYP2C8 in catalyzing the 4-hydroxylation of all-trans RA to 4-hydroxy-RA. It is believed, without being limited by theory, that CYP3A4 may be particularly important for ATRA metabolism in the skin. This is because CYP3A4 is expressed in skin, involved in RA metabolism, a CYP with one of the broadest substrate specificities of all of the known CYPs and available as a human recombinant protein in a commercial kit. Thus, a commercially available CYP3A4 assay was used as a surrogate to predict RAMBA potential in the skin.
The commercially available P450-GLO™ Assay kit (Promega Corporation, Madison Wis.) was used to screen various compounds for potential CYP activity, specifically CYP3A4A inhibition activity. CYP3A4A is thought to be among the primary CYP isoforms responsible for retinoic acid metabolism in the skin.
The commercially available P450-GLO™ Assay kit (Promega Corporation, Madison Wis.) was used to screen various compounds for potential CYP activity, specifically CYP3A4A inhibition activity. CYP3A4A is thought to be one of the primary CYP isoforms responsible for retinoic acid metabolism in the skin.

[2] = tested on: ATRA 4-hydroxylase activity (CYP) of pig liver microsomes; experiment: In vitro ATRA 4-hydroxylase (CYP) inhibition assay using pig liver microsomes; conditions: for IC50: 90 min
Description: Cytochrome P450 is a large and diverse group of enzymes that catalyze the oxidation of organic substances. […] Applicant evaluated the potential RAMBA activity of several azoles using pig liver microsomes, a rich source of CYP activity, comprising many different CYP 450 isoforms. […] As understanding in this area has progressed, a more specific CYP inhibition assay can be used to provide better predictivity of activity in human skin. Nevertheless, this assay may still be used as a general predictor of overall CYP activity.
Microsomal preparation: One lobe of fresh pig liver was obtained at the time of slaughter from a food-processing company and immediately placed in ice cold 15 mM KH2PO4/250 mM sucrose (pH 7.4) and kept on ice during transportation. A 10 g sample of liver was minced and homogenized in 30 mls of homogenization buffer (15 mM KH2PO4/250 mM sucrose) using a Tekmar homoginizer by pulsing 3 times 20 second pulses. […] The remaining pig liver was cut into 10-g pieces and wrapped in aluminum foil and stored at −80° C. The homogenates from the 8 samples were pooled and centrifuged at 13,000×g for 20 minutes at 4° C. to remove crude debris and the supernatant was further centrifuged at 100,000×g for 70 minutes at 4° C. The microsomal pellets were resuspended into 50 mls of 150 mM KH2PO4/1 mM DTT (pH 7.4) and 1 mL aliquots were stored at −80° C. In vitro 4-hydroxylase activity assay: All procedures were carried out under minimal light in order to prevent degradation of the retinoid samples. The ATRA 4-hydroxylase assay can be described briefly as follows: 100-150 μg of pig liver microsomal protein in 150 mM KH2PO4 was incubated at 37° C. in the presence of radiolabeled ATRA and 5 mM NADPH for 90 min. The final ATRA concentration was 1 μM, as a combination of [20-Methyl-^3H]ATRA and unlabeled ATRA. Initially radiolabeled ATRA was used to assist in validating the method. Once retention times of retinoid metabolites were identified unlabeled ATRA was used for screening. Compounds tested as possible competitive substrates were added to the assay 10 min prior to the addition of ATRA. Ethanol, containing 0.1% butylated hydroxytoluene (BHT) as an antioxidant, was used to stop the reactions. For recovery of ATRA the pH of reactions were adjusted to 3.0 before extraction with 0.1N HCl. Retinoids were extracted from the protein aqueous phase with 4 mls hexane, 1 ml 100 μg/ml BHT in water (pH 3). An additional 4 mls of hexane (pH 3) was used for a second extraction. The organic extractions were pooled, evaporated to dryness using a speed vac, and resuspended in 62.5 μl acetonitrile containing 1 mg/ml BHT. Samples were analyzed by HPLC. […] Mobile phases used for gradient elution of retinoids were those of Duell et al., J. Clin. Invest. […] Mobile phase A was acetonitrile:0.02 M ammonium acetate:acetic acid (1:1:0.01) and mobile phase B was acetonitrile:0.2M ammonium acetate;acetic acid (19:1:0.008). […] Because of the sensitivity limitations of the β-RAM spectrometer, it was not used to quantitate peak areas but rather to confirm ATRA and ATRA 4-hydroxylase activity. Calculated peaks areas (using Millenium software—Waters Corp.) of ATRA and ATRA metabolites were used to quantify relative activity levels.

[3] = tested on: mechanically-induced skin inflammation (shaving); experiment: Method of treatment: shaving cream and leave-on skin cream applied to facial and neck regions; type: in vivo, human; conditions: 0.55% by weight in shaving cream before and leave-on cream after shaving, topical, 8 weeks
Description: A test subject topically applies a shaving cream composition comprising 0.55% 1-phenylimidazole, by weight in a vehicle, to the facial and neck regions prior to shaving. A leave-on skin cream comprising 0.55% 1-phenylimidazole, by weight in a vehicle, is applied to the same facial and neck regions after shaving.

[4] = IC50 (uM), CYP3A4 inhibition, P450-GLO Assay kit, human recombinant CYP3A4
[5] = read-out: IC50 (μM), in vitro 4-hydroxylase inhibition assay, pig liver microsomes, 1 μM ATRA, 5 mM NADPH, 37° C.
[6] = P450-GLO Assay kit, human recombinant CYP3A4
[7] = read-out: IC50 (uM), CYP3A4 inhibition, P450-GLO Assay kit, human recombinant CYP3A4

Molecule: CC(=O)n1ccnc1 [1-Acetylimidazole]
- IC50 [1, 4]: > 10 µM

Molecule: C=Cn1ccnc1 [1-Vinylimidazole]
- IC50 [1, 4]: > 10 µM

Molecule: c1ccc(Cn2ccnc2)cc1 [1-benzylimidazole]
- IC50 [2, 5]: 77.5 µM

Molecule: c1ccc(-n2ccnc2)cc1 [1-phenylimidazole]
- CYP inhibitory activity (in words), 4-hydroxylase assay ([2]; pig liver microsomes): IC50 values in the same range as climbazole
- IC50 [2, 5]: 52.5 µM
- facial and neck skin inflammation noted by the subject [3]: significantly less inflamed
- inhibitory activity in the CYP3A4 assay (in words) ([1]; P450-GLO Assay kit): showed inhibitory activity
- Hit / no hit for inhibition of CYP3A4 [1, 6]: Hit
- IC50 ([1]; human, recombinant enzyme): 1 µM

Molecule: O=C(n1ccnc1)n1ccnc1 [1′-1-Carbonylimidazole]
- IC50 [1, 4]: > 10 µM

Molecule: c1ccc(-c2ncc[nH]2)cc1 [2-phenylimidazole]
- CYP inhibitory activity (in words), 4-hydroxylase assay ([2]; pig liver microsomes): lacked any significant inhibitory activity
- IC50 [2, 5]: > 500 µM
- IC50 [1]: > 10 µM
- inhibitory activity in the CYP3A4 assay (in words) [1]: did not

Molecule: c1ccc(-c2c[nH]cn2)cc1 [4-phenylimidazole]
- CYP inhibitory activity (in words), 4-hydroxylase assay ([2]; pig liver microsomes): IC50 values in the same range as climbazole

Molecule: c1coc(-c2nc3ccccc3[nH]2)c1 [Fuberidazole]
- IC50 [1]: > 10 µM
- Hit / no hit for inhibition of CYP3A4 ([1]; human, recombinant enzyme): no hit >10 uM (key: hit: strong inhibition (IC50 value<10 μM); no hit: weak/no inhibition (IC50 value>10 μM))

Molecule: N=C(N)c1ccc(OCCCCCCOc2ccc(C(=N)N)cc2)cc1 [Hexamidine diisethionate]
- IC50 [1, 4]: > 10 µM

Molecule: c1ccc(-c2n[nH]cc2-c2ccnc3ccccc23)nc1 [LY-364947]
- IC50 [1]: > 10 µM

Molecule: Cc1cccc(C)c1N(Cn1cccn1)C(=O)CCl [Metazachlor]
- IC50 [1]: > 10 µM
- Hit / no hit for inhibition of CYP3A4 ([1]; human, recombinant enzyme): no hit >10UM (key: hit: strong inhibition (IC50 value<10 μM); no hit: weak/no inhibition (IC50 value>10 μM))

Molecule: Cc1ccc2cc3c(ccc4ccccc43)c3c2c1CC3 [Methylcholanthrene]
- Hit / no hit for inhibition of CYP3A4 [1, 6]: Near Hit

Molecule: CCc1cccc(C)c1N(C(=O)CCl)C(C)COC (centres unmarked) [Metolachlor]
- IC50 [1]: > 10 µM
- Hit / no hit for inhibition of CYP3A4 [1, 6]: no hit (weak/no inhibition (IC50 value>10 μM))

Molecule: Clc1ccc(COC(Cn2ccnc2)c2ccc(Cl)cc2Cl)c(Cl)c1 (centres unmarked) [Miconazole]
- Hit / no hit for inhibition of CYP3A4 ([1]; human, recombinant enzyme): Hit 5 uM

Molecule: NCCCn1ccnc1 [N-(3-Aminopropyl) imidazole]
- IC50 [1]: > 10 µM

Molecule: Benomyl
- Hit / no hit for inhibition of CYP3A4 [1, 6]: no hit (weak/no inhibition (IC50 value>10 μM))
- IC50 [1, 7]: > 10 µM

Molecule: Glutamylamidoethyl imidazole
- Hit / no hit for inhibition of CYP3A4 [1, 6]: no hit (weak/no inhibition (IC50 value>10 μM))
- IC50 [1, 7]: > 10 µM

Molecule: Piperine
- Hit / no hit for inhibition of CYP3A4 [1, 6]: Hit
- IC50 [1, 7]: ~10 µM

Results, then the molecule that gave them:

- IC50 [1]: > 10 µM
Molecule: Cn1ccnc1 [1-Methylimidazole]

- IC50 ([2]; pig): 308 µM
Molecule: Cc1nccn1Cc1ccccc1 [1-benzyl-2-methylimidazole]

- IC50 [1, 4]: > 10 µM
Molecule: Clc1ccccc1-c1nc2ccccc2[nH]1 [2-(2-Chlorophenyl) benzimidazole]

- IC50 [1]: > 10 µM
Molecule: CCCCc1nc(C=O)c(Cl)[nH]1 [2-Butyl-4-chloro-5-formylimidazole]

- IC50 [1, 4]: > 10 µM
Molecule: CCc1nc(C)c[nH]1 [2-Ethyl-4-methylimidazole]

- IC50 [1]: > 10 µM
Molecule: CCc1ncc[nH]1 [2-Ethylimidazole]

- IC50 [1, 4]: > 10 µM
Molecule: Cc1ncc[nH]1 [2-Methylimidazole]

- IC50 ([2]; pig): 100 µM
Molecule: c1ccc(-c2nc[nH]c2-c2ccccc2)cc1 [4,5-diphenylimidazole]

- IC50 [1, 4]: 0.8 µM
- Hit / no hit for inhibition of CYP3A4 ([1]; human, recombinant enzyme): Hit
Molecule: CC(=O)c1ccc(-n2ccnc2)cc1 [4′-(Imidazol-1yl) acetophenome]

- IC50 [1, 4]: > 10 µM
Molecule: Clc1ncnc2[nH]cnc12 [6-Chloropurine]

- IC50 [1]: > 10 µM
Molecule: Nc1nc[nH]n1 [Amitrol]

- IC50 [1, 4]: > 10 µM
Molecule: c1ccc2[nH]cnc2c1 [Benzimidazole]

- IC50 [1, 4]: > 10 µM
Molecule: CC1=N[C@H](C(=O)O)CCN1 [Ectoine]

- IC50 [1, 4]: > 10 µM
Molecule: N[C@@H](Cc1c[nH]cn1)C(=O)O [Histidine]

- IC50 [1]: 3 µM
- Hit / no hit for inhibition of CYP3A4 ([1]; human, recombinant enzyme): Hit
Molecule: CC(C)(C(=O)c1cccnc1)c1cccnc1 [Metyrapone]

- IC50 [1, 4]: > 10 µM
Molecule: CC(=O)/C=C/C1=C(C)CCCC1(C)C [β-Ionone]
